The text below walks through data of patent publication US20240197800A1, “Aristotelia chilensis EXTRACTS FOR TREATING FUNGAL INFECTIONS” (Phytonet Doo Beograd-rakovica, priority 2021, published 2024).

Test [1] concerns candida, three clinical isolates. The test is described as follows: inhibition of candida filamentation in vitro, checkerboard assay with nystatin in RPMI medium. The test is classed as cell-based, Candida albicans. The method, then:
The inhibitory effect of Maqui berry extract and nystatin, one of the most commonly applied topical antifungal drugs, on candida filamentation was investigated in vitro in three clinical isolates in RPMI medium in a checkerboard assay. The extract was tested in a concentration range of 0.125; 0.25 and 0.5 mg/mL (31.25; 62.5 and 125 μg/mL delphinidin, respectively 43.75; 87.5 and 175 μg/mL total anthocyanins), and nystatin in the concentration range 2 μg/mL (MIK), 1 μg/mL (½MIK) and 0.5 μg/mL (¼MIK).

The subject of a further test is Candida albicans SC5314. The test can be described thus: zebrafish embryo hindbrain infection model, inhibition of candida filamentation in vivo. Also on record: species or system Candida albicans (host: zebrafish embryo). The procedure: The model of the brain infection (hindbrain) of the zebrafish embryo with Candida albicans, described in the literature, is an animal model of the infection system which due to the optical transparency of the embryo body provides the ability to examine and monitor the effect of applied therapeutics on replication, filamentation and fungi dissemination through the body of the zebrafish embryo as a host. The embryos at the developmental stage of 32-34 hpf were injected into the brain through an optic vesicle with 50-75 Candida albicans SC5314 cells, previously labeled with green fluorescent dye. Candida inoculum was prepared in 5% polyvinylpyrrolidone (PVP) solution. Two hours after the microinjection of candida, the infected embryos were treated with Maqui berry extract at a concentration of 0.0625 mg/mL, 0.125 mg/mL and 0.25 mg/mL, as well as nystatin at a concentration of 1 μg/mL (½MIK) and 0.5 μg/mL (¼MIK). Beside individual treatments, the infected embryos were exposed to a combined treatment (nystatin and extract together), in combinations of all mentioned doses. The embryos injected with only 5% PVP represented the control group. After the applied treatments, the zebrafish embryos were reared for the next 4 days at a temperature of 31° C. and monitored daily for survival as well as filamentation and dissemination of candida using fluorescence microscopy.

[2] abbreviates: nystatin alone, MIK dose (2 μg/mL).

As for `C[C@@H]1[C@H](O)[C@@H](C)/C=C/C=C/CC/C=C/C=C/C=C/C=C/C(O[C@H]2O[C@H](C)[C@@H](O)[C@H](N)[C@@H]2O)CC2O[C@](O)(CC(O)C(O)CCC(O)CC(O)CC(O)CC(=O)O[C@H]1C)CC(O)C2C(=O)O` (stereo partly drawn) [nystatin], the MIK in test [1] (clinical isolates, RPMI medium) came out at 2 µg/mL. For the same molecule, in test [1] (setting [2]), the filamentation entry is recorded as “no filamentation” and the growth of isolates result is recorded as “reduced growth”. Moreover, in test [1] (nystatin alone, ½MIK (1 μg/mL) and ¼MIK (0.5 μg/mL) doses), the growth and filamentation result is “grew and filamented”. Further, the filamentation in vivo result with Candida albicans SC5314 (both nystatin concentrations (0.5 and 1 μg/mL)) is “filamentation was present”. In the test on Candida albicans SC5314 (nystatin 0.5 μg/mL (¼MIK) and 1 μg/mL (½MIK)), the “infection (candidiasis) compared to untreated embryos” value is on record as “significantly reduced”.
